From patent US5001158A, “Nitrosoureas compounds preparation thereof and utilization thereof in anticancerous” (Centre National de la Recherche Scientifique, priority 1990, dated 1991)
Read-outs that look alike come from different tables or passages of the source.

How the values were obtained:
Leukemia L 1210 [1] = tested on: Leukemia L 1210; parameters: key: N.S.: Not significant; .infin.: 50% more of the treated animals are cure; conditions: days 1, 5 and 9, cited from earlier work
[2] = tested on: Lewis pulmonary carcinoma; parameters: key: N.S.: Not significant; .infin.: 50% more of the treated animals are cure; conditions: days 1, 5 and 9, cited from earlier work
Melanocarcinoma B 16 = tested on: Melanocarcinoma B 16; parameters: key: N.S.: Not significant; .infin.: 50% more of the treated animals are cure; conditions: days 1, 5 and 9, cited from earlier work
Glioma 26 = tested on: Glioma 26; parameters: key: N.S.: Not significant; .infin.: 50% more of the treated animals are cure; conditions: days 1, 5 and 9, cited from earlier work
[3] = tested on: Mammary adenocarcinoma TM2; parameters: key: N.S.: Not significant; .infin.: 50% more of the treated animals are cure; conditions: days 1, 5 and 9, cited from earlier work
Fibrosarcoma I.C.I.G. C1 = tested on: Fibrosarcoma I.C.I.G. C1; parameters: key: N.S.: Not significant; .infin.: 50% more of the treated animals are cure; conditions: days 1, 5 and 9, cited from earlier work
[4] = tested on: Carcinoma of the colon (colon 26); parameters: key: N.S.: Not significant; .infin.: 50% more of the treated animals are cure; conditions: days 1, 5 and 9, cited from earlier work
Ovarian M 555 = tested on: Ovarian M 555; parameters: key: N.S.: Not significant; .infin.: 50% more of the treated animals are cure; conditions: days 1, 5 and 9, cited from earlier work
leukemia L 1210 [5] = experiment: Antitumoral activity on leukemia L 1210 grafted i.p. in mice, sulfoxide and sulfone mixtures (Unit 71 of INSERM); type: in vivo, mice (B6 D2 F1 /IFFA CREDO); conditions: D1, D5, D9
Experimental: This activity was also studied on mice carrying leukemia L 1210 grafted i.p. This experimental tumor is the one most frequently used in the primary screening of cytostatic drugs.
These tests were conducted in parallel in two laboratories: at Unit 71 of the Institut National de la Sante et de la Recberche Mediecale (INSERM), ClermontFerrand, and at the Institut de Cancerologie et d' Immunogenetique (ICIG), Villejuif.
The antitumoral efficacy of the products according to the invention was compared with that of CNCC.
On day D:0, three-month-old male B6 D2 F1 mice received 10^5 cells of the leukemia strain L 1210 by intraperitoneal administration. The animals are divided up into groups of 8 to 10 animals for the control groups and 6 to 8 animals for the treated groups. On days D:1, D:5 and D:9, the animals receive the treatment at different doses by intraperitoneal or intravenous administration. The CNCC is administered as a suspension in olive oil. The products according to the invention are administered in physiological serum. The mortality is recorded every day. The survival median was determined for the treated animals and the control animals. The results are considered to be positive if the index I= [formula] is greater than 125.
The value .infin. means that 50% to 100% of the animals have survived to day D:90.
The cytostatic activity oi the products according to the invention on leukemia L 1210 was evaluated on B6 D2 F1 /IFFA CREDO mice according to the protocol described previously.
The following were administered intraperitoneally (i.p.): the mixture A1 A2 in the following proportions: A1 (70%) and A2 (30%), or the mixture B1 B2 in the same proportions, or CNCC at the following doses: 10 mg/kg, 20 mg/kg, 30 mg/kg, 40 mg/kg and 50 mg/kg. The results are given in Table II and invite the following remarks: […]

[6] = Solubility in solvents allowing intravenous administration; type: physicochemical; conditions: solvents which allow intravenous administration
[7] = tested on: types of tumor listed in Table I; conditions: cited from earlier work

O=NN(CCCl)C(=O)N[C@H]1C(O)O[C@H](CO)[C@@H](O)[C@@H]1O (stereo partly shown) [CHLOROZOTOCIN, chlorozotocin]
Increase in the survival time (I.L.S.: T/C × 100) (Leukemia L 1210 [1]; 15 mg/kg i.p.): N.S.
Increase in the survival time (I.L.S.: T/C × 100) ([2]; 15 mg/kg i.p.): N.S.
Increase in the survival time (I.L.S.: T/C × 100) (Melanocarcinoma B 16; 15 mg/kg i.p.): N.S.
Increase in the survival time (I.L.S.: T/C × 100) (Glioma 26; 15 mg/kg i.p.): N.S.
Increase in the survival time (I.L.S.: T/C × 100) ([3]; 15 mg/kg i.p.): N.S.
Increase in the survival time (I.L.S.: T/C × 100) (Fibrosarcoma I.C.I.G. C1; 15 mg/kg i.p.): .infin. (50% more of the treated animals are cure)
Increase in the survival time (I.L.S.: T/C × 100) ([4]; 15 mg/kg i.p.): .infin. (50% more of the treated animals are cure)
Increase in the survival time (I.L.S.: T/C × 100) (Ovarian M 555; 15 mg/kg i.p.): .infin. (50% more of the treated animals are cure)

O=NN(CCCl)C(=O)NCCSSCCN(N=O)C(=O)NCCCl [CNCC, N[N-(2-chloroethyl) N-nitrosocarbamoyl]-N'-[N(2-chloroethyl)carbamoyl] N'-nitrosocystamine]
T/C × 100 (leukemia L 1210 [5]; 10 mg/kg i.p.): 250
number of animals surviving to 90 days (leukemia L 1210 [5]; 10 mg/kg i.p.): 0/6
T/C × 100 (leukemia L 1210 [5]; 20 mg/kg i.p.): .infin. (50 to 100% of the animals surviving to 90 days)
number of animals surviving to 90 days (leukemia L 1210 [5]; 20 mg/kg i.p.): 6/6
T/C × 100 (leukemia L 1210 [5]; 30 mg/kg i.p.): .infin. (50 to 100% of the animals surviving to 90 days)
number of animals surviving to 90 days (leukemia L 1210 [5]; 30 mg/kg i.p.): 6/6
T/C × 100 (leukemia L 1210 [5]; 40 mg/kg i.p.): .infin. (50 to 100% of the animals surviving to 90 days)
number of animals surviving to 90 days (leukemia L 1210 [5]; 40 mg/kg i.p.): 3/6
T/C × 100 (leukemia L 1210 [5]; 50 mg/kg i.p.): 125
number of animals surviving to 90 days (leukemia L 1210 [5]; 50 mg/kg i.p.): 0/6
solubility (in words) [6]: insolubility of this compound in the solvents which allow intravenous administration
Increase in the survival time (I.L.S.: T/C × 100) (Leukemia L 1210 [1]; 30 mg/kg i.p.): .infin. (50% more of the treated animals are cure)
Increase in the survival time (I.L.S.: T/C × 100) ([2]; 30 mg/kg i.p.): .infin. (50% more of the treated animals are cure)
Increase in the survival time (I.L.S.: T/C × 100) (Melanocarcinoma B 16; 30 mg/kg i.p.): 200
Increase in the survival time (I.L.S.: T/C × 100) (Glioma 26; 30 mg/kg i.p.): 200
Increase in the survival time (I.L.S.: T/C × 100) ([3]; 30 mg/kg i.p.): 185
Increase in the survival time (I.L.S.: T/C × 100) (Fibrosarcoma I.C.I.G. C1; 30 mg/kg i.p.): N.S.
Increase in the survival time (I.L.S.: T/C × 100) ([4]; 30 mg/kg i.p.): .infin. (50% more of the treated animals are cure)
Increase in the survival time (I.L.S.: T/C × 100) (Ovarian M 555; 30 mg/kg i.p.): > 254
activity against types of tumor (in words) [7]: active against all the types of tumor listed in Table I, with the exception of fibrosarcoma I.C.I.G
activity compared with the other chloroethylnitrosoureas (in words) [7]: quantitatively greater than those observed with the other chloroethylnitrosoureas

O=NN(CCCl)C(=O)NCCO [H.E.C.N.U., 1-(2-hydroxyethyl)-3-(2-chloroethyl) 3-nitrosourea]
Increase in the survival time (I.L.S.: T/C × 100) (Leukemia L 1210 [1]; 10 mg/kg i.p.): .infin. (50% more of the treated animals are cure)
Increase in the survival time (I.L.S.: T/C × 100) ([2]; 10 mg/kg i.p.): .infin. (50% more of the treated animals are cure)
Increase in the survival time (I.L.S.: T/C × 100) (Melanocarcinoma B 16; 10 mg/kg i.p.): 198
Increase in the survival time (I.L.S.: T/C × 100) (Glioma 26; 10 mg/kg i.p.): 182
Increase in the survival time (I.L.S.: T/C × 100) ([3]; 10 mg/kg i.p.): 165
Increase in the survival time (I.L.S.: T/C × 100) (Fibrosarcoma I.C.I.G. C1; 10 mg/kg i.p.): N.S.
Increase in the survival time (I.L.S.: T/C × 100) ([4]; 10 mg/kg i.p.): .infin. (50% more of the treated animals are cure)
Increase in the survival time (I.L.S.: T/C × 100) (Ovarian M 555; 10 mg/kg i.p.): 210

CC1(C)O[C@@H]2[C@@H](COC(=O)c3ccc([N+](=O)[O-])cc3)OC(NC(=O)N(CCCl)N=O)[C@@H]2O1 (stereo partly drawn) [R.F.C.N.U., 1-(2-chloroethyl)-3-[1'-(5'-pnitrobenzoyl 2', 3'-isopropylidene)alphabeta D-ribofuranosyl]-1-nitrosourea]
Increase in the survival time (I.L.S.: T/C × 100) (Leukemia L 1210 [1]; 20 mg/kg i.p.): 167
Increase in the survival time (I.L.S.: T/C × 100) ([2]; 20 mg/kg i.p.): N.S.
Increase in the survival time (I.L.S.: T/C × 100) (Melanocarcinoma B 16; 20 mg/kg i.p.): 144
Increase in the survival time (I.L.S.: T/C × 100) (Glioma 26; 20 mg/kg i.p.): N.S.
Increase in the survival time (I.L.S.: T/C × 100) ([3]; 20 mg/kg i.p.): N.S.
Increase in the survival time (I.L.S.: T/C × 100) (Fibrosarcoma I.C.I.G. C1; 20 mg/kg i.p.): .infin. (50% more of the treated animals are cure)
Increase in the survival time (I.L.S.: T/C × 100) ([4]; 20 mg/kg i.p.): N.S.
Increase in the survival time (I.L.S.: T/C × 100) (Ovarian M 555; 20 mg/kg i.p.): N.S.

CC(=O)O[C@@H]1[C@H](OC(C)=O)COC(NC(=O)N(CCCl)N=O)[C@@H]1OC(C)=O (stereo partly drawn) [R.P.C.N.U., 1-(2-chloroethyl)-3-[(2'-3'-4° trioacetyl)alphabeta D-ribopyrannosyl]-1-nitrosourea]
Increase in the survival time (I.L.S.: T/C × 100) (Leukemia L 1210 [1]; 15 mg/kg i.p.): N.S.
Increase in the survival time (I.L.S.: T/C × 100) ([2]; 15 mg/kg i.p.): N.S.
Increase in the survival time (I.L.S.: T/C × 100) (Melanocarcinoma B 16; 15 mg/kg i.p.): 151
Increase in the survival time (I.L.S.: T/C × 100) (Glioma 26; 15 mg/kg i.p.): 127
Increase in the survival time (I.L.S.: T/C × 100) ([3]; 15 mg/kg i.p.): 134
Increase in the survival time (I.L.S.: T/C × 100) ([4]; 15 mg/kg i.p.): N.S.
Increase in the survival time (I.L.S.: T/C × 100) (Ovarian M 555; 15 mg/kg i.p.): .infin. (50% more of the treated animals are cure)
